Data taken from US10464907B2, “Compound having HSP90 inhibitory activity or pharmaceutically acceptable salt thereof, and medical use thereof” (priority 2016, dated 2019).
Where two headings read alike, the source gives them in different places.

Legend:
[1] = biological target: HSP90α (Homo sapiens (Human), UniProt P07900); experiment: Fluorescence polarization assay, binding ability to HSP90, benzamide compounds; conditions: GA-FITC 100 nM; read-out: HSP90 FP) (IC50; nM)
Description: 1 M dithiothreitol (DTT), 10 mg/m: BGG (bovine gamma globulin) were added to hexafluorobenzene (HFB) buffer (20 mM HEPES pH 7.3, 50 mM KCl, 5 mM MgCl2, 20 mM Na2MoO4, 0.01% NP4O, 3rd distilled water) and mixed. Then, 100 nM […] (GA)-FITC (Fluorescein isothiocyanate) was added and reacted at room temperature for 10 minutes. Each 100 μL of the mixture was dispensed into the control wells of a 96-well plate, 2 μL of HSP90α was added to the remaining mixture, and each 100 μL of the other wells was dispensed. […] The binding ability of the compound to HSP90 was expressed as mP (millipolarization unit=1000 mP unit).

[2] = tested on: H1975 cells; experiment: MTS cell viability in H1975 cells resistant to Gefitinib; type: cell-based; conditions: H1975, 3 days
Description: To confirm the cell viability according to the concentration of the compound synthesized in H1975 cells (ATCC) resistant to Gefitinib, MTS [3-(4,5-dimethylthiazol-2-yl)-5-[…]carboxymethoxyphenyl)-2-(4-sulfophenyl)-2H-tetrazolium, inner salt] analysis was performed. When the cells were cultured so as to occupy 80% of the bottom of the culture dish, the cells were detached and diluted with RPMI 1640 medium to a concentration of 1.5×10^3 cells/well. Each 100 μL of the suspension was added to each well of a 96-well plate and cultured for 14 hours. Then, the medium was changed to the culture solution treated with compound of each concentration each concentration (1a-g: 0, 1, 5, 10, 30, 50 or 100 μM, 14a-I, 16a, b, 21a-f: 0, 0.01, 0.1, 1, 5, 10, 30, 50, 70 or 100 μM), and cultured for 3 days. Each 20 μL of the MTS solution was dispensed into each well and reacted for 1 hour at 37° C. in an incubator supplied with 5% CO2.

[3] = tested on: HSP90 client proteins (Her2, EGFR, Met, Akt, c-Raf) and HSP70 in H1975 cells; experiment: Analysis of protein expression (western blot), Compound 21f; type: cell-based
Description: Compound 21f having good efficacy was selected and HSP90 client protein proliferation effect in the same cell line was confirmed, in which the HSP90 client proteins were Her2 (human EGFR-related 2), EGFR (epidermal growth factor receptor), Met and c-Raf were used.
H1975 cells resistant to Gefitinib were cultured in a medium supplemented with 10% fetal bovine serum (FBS) for 24 hours, and the cells were detached, harvested and diluted with a RPMI 1640 medium so as to be 5×10^5 cells/well. Each 5 mL of the suspension was added to […] culture dish and cultured for 24 hours. Then, the medium was changed to the culture solution treated with each compound of concentration (21f: 0, 0.05, 0.1, 0.5 or 1 μM, GA: 1 μM), and cultured for 24 hours. After culture, the cells were harvested and centrifuged at 1300 rpm for 5 minutes at 4° C., and the supernatant was removed. The pellet was washed with phosphate buffered saline, centrifuged once again under the same conditions, and the supernatant was removed. Lysis buffer was added to the remaining pellet and lysed by vortexing at 5 minute intervals for 30 minutes. The supernatant was separated by centrifugation at 16000 rcf for 4 minutes at 4° C., and proteins were quantified using BCA ([…]) kit. SDS-PAGE (sodium dodecylsulfate-polyacrylamide gel electrophoresis) was performed using 10, 12% running gel and 4% stacking gel (10 mA per gel). The separated proteins were transferred to an immunoblot PVDF membrane (polyvinylidene fluoride membrane) at 100 V for 75 minutes. The membranes were blocked with 5% skim milk solution for 2 hours and then added a primary antibody diluted in the ratio of 1: 750-1,000 in 0.1% tween-20 solution and reacted at 4° C. for 12 hours. After washing three times with TBS-T (Tris-buffered saline and Tween 20 containing Tween 20) and detected with an image analyzer using ECL (enhanced chemiluminescence) solution.

[4] = tested on: H1975; experiment: MTS cell proliferation / survival assay; type: cell-based
Description: Sk-Br3 (Korean cell line bank), a breast cancer cell, and H1975 cell (ATCC), a nonsmall cell lung cancer, were cultured in RPMI 1640 containing 25 mM HEPES (4-(2-hydroxyethyl)-1-piperazineethanesulfonic acid) and RPMI 1640 containing L-glutamine (containing streptomycin ([…]), penicillin (100 units/mL) and 10% fetal bovine serum (FBS)).
The cells were cultured under a humidified atmosphere of 37° C. and 5% CO2.
Next, non-metastatic lung cancer cells were treated with Compound 17 and the cell proliferation rate or cell survival rate was measured by MTS [3-(4,5-dimethylthiazol-2-yl)-5-(3-carboxymethoxyphenyl)-2-2H-tetrazolium, inner salt] analysis.
Cells were dispensed in 96-well plates at 3000 cell/well (Sk-Br3) and 2000 cell/well (H1975), and 100 μL of the medium was added per well and then was incubated overnight.
Cell proliferation was evaluated using the Promega Cell Titer 96 Aqueous One Solution cell proliferation assay.
After compound and cell culture, 20 μL of assay substrate solution was added to each well and incubated at 37° C. for an additional 1 hour.
Cell proliferation was confirmed by measuring the absorbance at 490 nm using a microplate reader (Tecan Infinite F200 Proplate reader).

[5] = tested on: H1975; experiment: H1975 colony formation (clogenic assay); type: cell-based; conditions: 0.05 μM, 3 weeks, FIG. 3
Description: H1975 cells were treated with Compound 17 at a concentration of 0.05 or 0.5 μM for 3 weeks and then clogenic assay was performed.
First, RPMI1640 medium (10% FBS, 0.48% agar) was added to a 6-well plate and hardened, and then, 10000 cells (H1975) were dispensed in a medium containing RPMI1640 medium (10% FBS, 0.33% agar) and solidified. After solidification, the cells were treated with compound at a concentration of 0.05 or 0.5 μM for 24 hours, followed by culturing for 3 weeks, and then colony formation was confirmed using a crystal violet staining solution.

[6] = tested on: HSP90 client protein of EGFR, Her2, Met, Akt, c-Raf, Cpk4; experiment: Protein expression analysis (western blotting), Compound 17; type: cell-based; conditions: 24 hours, FIG. 4
Description: Next, the cells were dispensed into 100 mm culture dishes (1×10^6/dish) and adhered to the bottom surface overnight. Compound 17 at a concentration of 0.05, 0.1, 0.5 or 1 μM was added to the cells, followed by further culture for 24 hours.
In addition, cells were treated with DMSO (1%) or geladinamycin (1 μM) as a control and cultured for 24 hours.
The cultured cells were harvested and lysed in ice-cold lysis buffer (23 mM Tris-HCl pH 7.6, 130 mM NaCl, 1% NP40, 1% sodium deoxycholate, 0.1% SDS (sodium dodecylsulfate)), and 30 μg of the lysate was separated by SDS-PAGE (SDS-polyacrylamide gel electrophoresis) and transferred to a PVDF membrane (Bio-Rad).
Membranes were blocked with TBST (Tween 20 containing Tris-Buffered Saline) containing 5% skim milk and incubated with the respective primary antibodies [EGFR (Epidermal growth factor receptor), Her2 (human epidermal growth factor receptor type 2), Met, N-cadherin, E-cadherin, α-tubulin, acetyl-α-tubulin, protein kinase B (Akt), c-Raf, Cdk4 (Cyclin-dependent kinase 4), HSP90, HSP70, PARP (Poly ADT-ribose Polymerase), caspase 3, cleaved caspase 3, truncated caspase 8, B-cell lymphoma 2 (Bcl-2), Bax or β-Actin, purchased from Cell Signaling Technology (USA)].
After binding to a secondary antibody conjugated with horseradish peroxidase, the protein was visualized by ECL (electrochemiluminescence, GE healthcare, USA).

[7] = LogP; type: physicochemical; conditions: called measured values of LogP
Description: All experimental data were analyzed using Prism software (version 5.0, Graphpad Software, San Diego, Calif.). In addition, tPSA (Topological Polar Surface Area) calculated using Chemdraw software and the measured values of LogP are shown in Tables 1 and 2 below.

SMILES | IC50 [1] [nM] | EC50 ([2]; read-out: H1975 (EC50; μM)) [µM] | EC50 ([2]; read-out: H1975 EC50) [µM] | expression of HSP90 client proteins ([3]; H1975, 0.05-1 μM, 24 hours, FIG. 5) | concentration at which expression of HSP70 was increased ([3]; H1975, 24 hours) [µM] | concentration at which expression was significantly decreased: EGFR ([3]; H1975, 24 hours) [µM] | concentration at which expression was significantly decreased: Her2, Met, and Akt ([3]; H1975, 24 hours) [µM] | cell death (cell survival) ([4]; 72 hours, FIG. 2B) | IC50 ([4]; Homo sapiens, NCI-H1975, read-out: IC50 for H1975) [nM] | inhibition at 10 µM ([4]; Homo sapiens, NCI-H1975, read-out: Inhibition rate at 10 μM (%)) [%] | inhibition at 30 µM ([4]; Homo sapiens, NCI-H1975, read-out: Inhibition rate at 30 μM (%)) [%] | proliferation rate of the cells ([4]; non-small cell lung cancer cells, 1, 2 and 3 days, FIG. 2A) | colony formation of H1975 [5] | HSP protein inhibition / degradation of HSP90 client protein ([6]; 0.05-1 μM) | concentration at which most of the client proteins were denatured [6] [nM] | logP [7]
CCCNC(=O)c1ccc(CN(C)C(=O)c2cc(C(C)C)c(O)cc2O)cc1 [Compound 21f, 2,4-dihydroxy-5-isopropyl-N-methyl-N-(4-(propylcarbamoyl)benzyl) benzamide] | 5.3 | 0.42 | 0.42 | inhibited in a concentration-dependent manner | 0.5 | 0.1 | 0.5 | – | – | – | – | – | – | – | – | –
CC(C)c1cc(C(=O)N2CCN(C)CC2c2ccccc2)c(O)cc1O (stereo not shown) [Compound 17, (2,4-dihydroxy-5-isopropylphenyl)(4-methyl-2-phenylpiperazin-1-yl)methanone] | – | – | – | – | – | – | – | cell death was also observed | 98000 | 72.1 | 77.6 | inhibited in a concentration-dependent manner | inhibited | inhibited HSP protein in concentration-dependent manner | 500 | 3.8
